The values that follow are results of earlier work, collected in patent US20030219468A1 (priority 2002, published 2003).

For one series, the system named is Plasmodium berghei. Particulars: mice, toward Plasmodium berghei.
The conditions of series [1]: cold water.
For series [2] the following is noted: sorbic acid and its salts.

For the compound Curdlan, the immunizing activity result with Plasmodium berghei was “immunizing activity”.
With `C/C=C/C=C/C(=O)O` [Sorbic acid, trans,trans-2,4-hexadienoic acid], the solubility result in series [1] is recorded as “only slightly soluble”. Further, the microbiostatic antimycotic activity entry in series [2] is listed as “very high microbiostatic antimycotic activity”.
